Results: patent US7645609B2, “Method for controlling sialylation of proteins produced by mammalian cells” (Immunex Corporation, priority 2002, dated 2010)

Experiments:
cultured cells = settings: N-acetylmannosamine added to culture medium; cited from earlier work
[1] = system: CHO cell line that had been genetically engineered to produce TNFR:Fc; test: Fraction of TNFR:Fc eluting at high salt from an anion exchange column (relative extent of sialylation); format: cell-based, Chinese hamster; settings: additives at 4 mM each in serum-free medium, 7 days at 30° C., FIG. 2
Procedure: The following experiment was done to determine which carbohydrate or combination of carbohydrates added to cell culture medium is able to induce the most sialylation of TNFR:Fc produced by the cells. The relative extent of sialylation was determined by measuring the fraction of TNFR:Fc produced by a cell culture that elutes from an anion exchange column only at a high salt concentration. This provides a rough measure of the extent of sialylation because proteins with more sialic acid require a higher salt concentration for elution from an anion exchange column. […] Cultures were incubated for 7 days at 30° C. with shaking at 150 revolutions per minute. TNFR:Fc was harvested from the medium after seven days of growth and pre-purified by Protein A affinity chromatography. Thereafter, the purified TNFR:Fc protein concentration was determined by measuring absorbance at 280 nanometers. […] At 22.1 minutes, the gradient was complete, and the column contained 100% Buffer B. Elution of protein was determined by monitoring absorbance at 280 nanometers, and a graph of these measurements versus time (relative to the time of loading) was recorded automatically as the protein eluted from the column. […] The fraction of TNFR:Fc that eluted at high salt was determined by comparing the area under the curve that eluted after soybean trypsin inhibitor with the total area under the curve. […]

| Compound | sialylation of a protein produced by the cultured cells (cultured cells) | sialylation of TNFR:Fc (high salt-eluting fraction compared to a batch produced without medium additives) [1] |
| --- | --- | --- |
| CC(=O)N[C@@H]1C(O)O[C@H](CO)[C@@H](O)[C@@H]1O (some centres unmarked) [N-acetylmannosamine] | increased sialylation |  |
| O=C[C@H](O)[C@@H](O)[C@@H](O)[C@H](O)CO [galactose] |  | increases in sialylation |
